Literature values as cited in patent US20180325839A1, “TRANSDERMAL PATCHES” (BUZZZ PHARMACEUTICALS LIMITED, priority 2015, published 2018).

Assays:
[1] = local anaesthetic during cataract surgery

CCCN1CCCC[C@H]1C(=O)Nc1c(C)cccc1C [ropivacaine, (2S)—N-(2,6-dimethylphenyl)-1-propyl-2-piperidinecarboxamide]
Half-life compared with lidocaine [1]: longer | Potency relative to lidocaine, dose-for-dose [1]: as much as four times as potent as lidocaine | Skin permeation characteristics compared with lidocaine saturated H2O (ropivacaine saturated H2O): significantly poorer | In vivo skin penetration compared to a saturated solution of lidocaine (saturated solution of ropivacaine): poor
